The structures appear in SMILES notation.

As a reminder, the EC50 is the concentration at which the effect is half-maximal. Low values mean higher potency in that assay, high ones lower potency in that assay. What is called IC50 is the point on the concentration scale where inhibition reaches its midpoint. High values mean a need for much substance, low ones inhibition by little substance. Broadly, the inhibition is the drop in the measured response relative to a control, in per cent. Read a low inhibition as little suppression.

In assay [1] the target is T1, SARM1 protein in iSARM1 (HEK293) cells (Homo sapiens, UniProt Q6SZW1).
T1 construct: The full-length SARM1 was synthesized into the pUC57 plasmid by WZ Biosciences Inc., and PCR was performed using pUC57-SARM1 as a DNA template
T1 sequence (Q6SZW1 28-724): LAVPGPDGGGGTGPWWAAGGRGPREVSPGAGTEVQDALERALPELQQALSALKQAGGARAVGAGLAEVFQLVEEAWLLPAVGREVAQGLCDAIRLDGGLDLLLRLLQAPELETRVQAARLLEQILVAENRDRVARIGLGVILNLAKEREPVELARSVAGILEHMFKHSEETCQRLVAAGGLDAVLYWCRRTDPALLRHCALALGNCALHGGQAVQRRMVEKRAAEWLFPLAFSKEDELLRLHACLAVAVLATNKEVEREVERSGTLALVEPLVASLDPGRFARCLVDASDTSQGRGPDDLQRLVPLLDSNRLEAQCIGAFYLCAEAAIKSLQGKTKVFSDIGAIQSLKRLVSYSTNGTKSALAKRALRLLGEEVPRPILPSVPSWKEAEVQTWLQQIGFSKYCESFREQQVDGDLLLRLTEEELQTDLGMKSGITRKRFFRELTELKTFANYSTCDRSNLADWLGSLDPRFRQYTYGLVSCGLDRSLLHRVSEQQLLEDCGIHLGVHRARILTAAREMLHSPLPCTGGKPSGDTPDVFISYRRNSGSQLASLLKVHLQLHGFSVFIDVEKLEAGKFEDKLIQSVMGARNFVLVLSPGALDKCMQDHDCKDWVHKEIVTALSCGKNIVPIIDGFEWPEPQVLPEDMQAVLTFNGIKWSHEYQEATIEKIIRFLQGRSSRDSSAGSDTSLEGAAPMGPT
Nature of the assay: Inhibitory activity in inducible SARM1 overexpressing cell line, intracellular cADPR level. The assay is classed as cell-based. Conditions: activator CZ-48 100 μM, cADPR content. In outline:
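Inducible SARM1-overexpressing HEK293 cells preincubated 1.5 h with inhibitor (50 μM final), then activated with 100 μM CZ-48 for 16 h. Intracellular cADPR extracted with perchloric acid, NAD+ removed by NADase, and quantified by cyclase-coupled resazurin cycling assay (Ex/Em 544/599, 30 min kinetics) against cADPR standards; inhibition rate and IC50 calculated.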

The target of assay [2] is T2, dN-SARM1 protein (Homo sapiens, UniProt Q6SZW1).
T2 construct: the N-terminal mitochondrial localization signal peptide of SARM1 was removed
T2 sequence (Q6SZW1 28-724): T1 sequence (Q6SZW1 28-724)
Nature of the assay: In vitro biochemical assay for inhibiting SARM1 enzymatic activity (IC50), PC6 fluorescence method. Particulars: 50 μM NAD, 50 μM PC6, 50 μM NMN activator. An outline of the steps: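 Activity read as the rate of PC6 fluorescence change (390 nm excitation, 520 nm emission) over a 30 min room-temperature reaction containing final 50 μM each of NAD, PC6 and NMN activator. Enzyme, 0.05 μg/ml dN-SARM1 in 50 mM Tris-HCl pH 7.5, first incubated 10 min with compound diluted serially from 200 μM; IC50 calculated.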

For assay [3], the target named is T2, dN-SARM1 protein. The assay is described as follows: In vitro biochemical assay for inhibiting SARM1 enzymatic activity (% inhibition rate), PC6 fluorescence method. Particulars: 20 μM compound; 50 μM NAD, 50 μM PC6, 50 μM NMN activator. The procedure: The compounds were subjected to PC6 fluorescence method measurement [Chinese Patent 202010528147.3] using the dN-SARM1 protein obtained through “(4) Protein extraction” in “Expression and purification of SARM1 protein” in the above biological activity example 1.
First, 0.05 μg/ml dN-SARM1 and 20 μM compound were incubated in 50 mM Tris-HCl (pH 7.5) solution for 10 min, and then added with 50 μM NAD and 50 μM PC6 as substrate and 50 μM NMN as activator for 30 minutes of reaction at room temperature. The concentration of each component was the final concentration in the reaction system.
During the reaction, PC6 fluorescence spectrum dynamics were detected by a microplate reader, wherein the excitation wavelength and emission wavelength for detection were 390 nm and 520 nm, respectively. Finally, the reaction rate was used to express the activity of the protein. The higher the reaction rate, the stronger the activity of the protein and the lower the inhibitory efficiency of the compound.

`CN(C(=O)OC(C)(C)C)c1ccc2ncc(-c3cccc(NC(=O)C4CCOCC4)c3)n2c1` [Compound 49] displayed an EC50 in assay [1] of less than 1000 nM. The IC50 against dN-SARM1 protein [2] fell in the range of 1000 to 10000 nM. The inhibition at 20 µM against dN-SARM1 protein [3] is greater than 90%.
The compound `COCCOCC(=O)Nc1ccc(-c2cnc3ccc(N(C)C(=O)OC(C)(C)C)cn23)cc1` [Compound 50] had an EC50 in assay [1] of 1000 to 10000 nM. In addition, the IC50 against dN-SARM1 protein [2] lay within 1000 to 10000 nM. This compound also yielded an inhibition at 20 µM at dN-SARM1 protein [3] greater than 90%.
In assay [1], `c1ccc(Nc2ccc3ncc(-c4ccccc4)n3c2)cc1` [Compound 75] came in with a 50% effective concentration (EC50) of less than 1000 nM. Also, the IC50 against dN-SARM1 protein [2] was in the range of 1000 to 10000 nM. Moreover, the inhibition at 20 µM against dN-SARM1 protein [3] was greater than 90%.
On the same counts, the results for `CNc1ccc2ncc(-c3cccc(NC(=O)COCCOCC(=O)Nc4cccc(-c5cnc6ccc(NC)cn56)c4)c3)n2c1` [Compound 78] are 1000 to 10000 nM, less than 1000 nM and greater than 90%.
For `CNc1ccc2ncc(-c3cccc(NC(=O)COCCOCCOCC(=O)Nc4cccc(-c5cnc6ccc(NC)cn56)c4)c3)n2c1` [Compound 79], the 50% effective concentration (EC50) in assay [1] was 1000 to 10000 nM. The compound further displayed an IC50 at dN-SARM1 protein [2] of less than 1000 nM. Further, the inhibition at 20 µM on dN-SARM1 protein [3] was greater than 90%.
In turn, `CC(C)(C)OC(=O)N(c1ccccc1)c1ccc2ncc(-c3ccccc3)n2c1` [Compound 90] showed an EC50 in assay [1] of 1000 to 10000 nM. The compound also registered an IC50 against dN-SARM1 protein [2] of 1000 to 10000 nM. This compound also yielded an inhibition at 20 µM at dN-SARM1 protein [3] greater than 90%.
In assay [1], `CNc1ccc2ncc(C(=O)Nc3ccccc3)n2c1` [Compound 105, 6-(methylamino)-N-phenylimidazo[1,2-a]pyridin-3-carboxamide] showed an EC50 of 1000 to 10000 nM. For the same compound, the IC50 against dN-SARM1 protein [2] lay within 1000 to 10000 nM. Besides, the inhibition at 20 µM on dN-SARM1 protein [3] is greater than 90%.
In turn, `CN(C(=O)OC(C)(C)C)c1ccc2ncc(-c3cccc(NC(=O)COCCOCCOCC(=O)Nc4cccc5c4CN(C4CCC(=O)NC4=O)C5=O)c3)n2c1` (stereo not drawn) [Compound 115, tert-butyl (3-(3-(2-(2-(2-(2-((2-(2,6-dioxopiperidin-3-yl))-1-oxoisoindolin-4-yl)amino)-2-oxoethoxy)ethoxy)ethoxy)acetamido)phenyl)imidazo[1,2-a]pyridin-6-yl)(methyl) carbamate] had an EC50 in assay [1] of 1000 to 10000 nM. Besides, the IC50 against dN-SARM1 protein [2] was less than 1000 nM. This compound also gave an inhibition at 20 µM against dN-SARM1 protein [3] greater than 90%.
On the same counts, the results for `CC(C)(C)OC(=O)Nc1ccc2ncc(-c3cccc(NC(=O)COCCOCC(=O)Nc4cccc(-c5cnc6ccc(NC(=O)OC(C)(C)C)cn56)c4)c3)n2c1` [Compound 122] are less than 1000 nM, less than 1000 nM and greater than 90%.
Take `CC(C)(C)OC(=O)Nc1ccc2ncc(-c3cccc(NC(=O)COCCOCCOCC(=O)Nc4cccc(-c5cnc6ccc(NC(=O)OC(C)(C)C)cn56)c4)c3)n2c1` [Compound 123]: the EC50 in assay [1] is less than 1000 nM. The IC50 against dN-SARM1 protein [2] was less than 1000 nM. For the same compound, on dN-SARM1 protein [3], the inhibition at 20 µM is greater than 90%.
Regarding `COCCOCC(=O)Nc1cccc(-c2cnc3ccc(NC(=O)C4CC4)cn23)c1` [Compound 129, N-(3-(3-(2-(2-methoxyethoxy)acetamido)phenyl)imidazo[1,2-a]pyridin-6-yl)cyclopropanecarboxamide], in assay [1], the EC50 lay in the range of 1000 to 10000 nM. Further, the IC50 against dN-SARM1 protein [2] is less than 1000 nM. For the same compound, the inhibition at 20 µM against dN-SARM1 protein [3] is greater than 90%.
Regarding `COCCOCC(=O)Nc1cccc(-c2cnc3ccc(NC(=O)C(C)(C)C)cn23)c1` [Compound 130], the half-maximal effective concentration (EC50) in assay [1] was 1000 to 10000 nM. The compound further displayed an IC50 against dN-SARM1 protein [2] of less than 1000 nM. The same compound returned an inhibition at 20 µM at dN-SARM1 protein [3] greater than 90%.

For the origin of these results see patent publication US20240368168A1, “SARM1 ENZYME ACTIVITY INHIBITOR AND APPLICATION THEREOF” (ARTIVILA BIOPHARMA, priority 2021, published 2024).
